#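 Protocol summary: plate cells (96-well), add compound at 5 concentrations, incubate 48 h, interpolate endpoints linearly. Here, GI50 denotes the concentration required for 50% inhibition of growth.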 Calls of active or inactive are those of the source. No stated cut-off is given here; in the data, active = GI50 up to about 1.1 µM and inactive = higher.
# How the values were obtained:
# Assay in all cases: NCI anticancer screen, dose series, 48 h
# [1] = system: K562
# [2] = system: SF-539
# [3] = system: LOX IMVI
# [4] = system: NCI-H522
# [5] = system: SNB-19
# [6] = system: HT-29
# [7] = system: OVCAR-4
# [8] = system: SK-MEL-2
# [9] = system: OVCAR-8
# [10] = system: BT-549
# [11] = system: ACHN
# [12] = system: SR
# [13] = system: MOLT-4
# [14] = system: OVCAR-5
# [15] = system: OVCAR-3
# [16] = system: KM12
# [17] = system: 786-0
# [18] = system: HOP-62
# [19] = system: MDA-MB-231
# [20] = system: MDA-N
SMILES,GI50 [1],GI50 [2],GI50 [3],GI50 [4],GI50 [5],GI50 [6],GI50 [7],GI50 [8],GI50 [9],GI50 [10],GI50 [11],GI50 [12],GI50 [13],GI50 [14],GI50 [15],GI50 [16],GI50 [17],GI50 [18],GI50 [19],GI50 [20]
C=C1CC2OC2(C(=O)O[C@H]2CCC3[C@@H]4CCC5=CC(=O)CC[C@]5(C)C4CC[C@@]32C)C1=O (some centres undefined),1.78 µM (inactive),9.33 µM (inactive),7.94 µM (inactive),2.47 µM (inactive),18.7 µM (inactive),8.34 µM (inactive),6.34 µM (inactive),6.07 µM (inactive),7.59 µM (inactive),15.3 µM (inactive),8.09 µM (inactive),0.805 µM (active),1.49 µM (inactive),19.6 µM (inactive),8.51 µM (inactive),12.6 µM (inactive),2.04 µM (inactive),21.4 µM (inactive),,
COc1ccc(-n2cnc3c(N)nc(N)nc32)cc1,,49.5 µM (inactive),,> 100 µM (inactive),> 100 µM (inactive),> 100 µM (inactive),> 100 µM (inactive),54.2 µM (inactive),> 100 µM (inactive),> 100 µM (inactive),> 100 µM (inactive),,34 µM (inactive),> 100 µM (inactive),> 100 µM (inactive),29.1 µM (inactive),> 100 µM (inactive),> 100 µM (inactive),57.8 µM (inactive),> 100 µM (inactive)
CCCc1cn2c(/C=N/NC(=N)N)c(-c3cccc([N+](=O)[O-])c3)nc2s1,1.58 µM (inactive),1.69 µM (inactive),2.07 µM (inactive),1.98 µM (inactive),2.07 µM (inactive),2.06 µM (inactive),1.47 µM (inactive),2.1 µM (inactive),1.88 µM (inactive),1.57 µM (inactive),1.79 µM (inactive),2.09 µM (inactive),1.23 µM (inactive),1.81 µM (inactive),1.8 µM (inactive),1.76 µM (inactive),1.95 µM (inactive),1.78 µM (inactive),1.47 µM (inactive),
O=c1c2cc(S(=O)(=O)O)ccc2nc(COc2ccc(Oc3ccc(Cl)cc3Cl)cc2)n1-c1ccc(Oc2ccc(Cl)cc2)cc1Cl,28.2 µM (inactive),16.7 µM (inactive),16.4 µM (inactive),20.4 µM (inactive),26.4 µM (inactive),18.7 µM (inactive),25.2 µM (inactive),16.5 µM (inactive),19 µM (inactive),17.1 µM (inactive),24.5 µM (inactive),15.2 µM (inactive),10.4 µM (inactive),23.2 µM (inactive),18.3 µM (inactive),28.5 µM (inactive),20 µM (inactive),21.4 µM (inactive),,23.7 µM (inactive)
O=C(Cc1ccccc1)NN1C(=O)/C(=C\c2ccccc2)S/C1=N\c1ccccc1,,> 100 µM (inactive),,,> 100 µM (inactive),> 100 µM (inactive),> 100 µM (inactive),> 100 µM (inactive),> 100 µM (inactive),> 100 µM (inactive),> 100 µM (inactive),,> 100 µM (inactive),> 100 µM (inactive),> 100 µM (inactive),> 100 µM (inactive),> 100 µM (inactive),> 100 µM (inactive),> 100 µM (inactive),> 100 µM (inactive)
O=Cc1ccc(Oc2c3ccccc3nc3ccccc23)cc1,,1.76 µM (inactive),2.9 µM (inactive),,16.4 µM (inactive),2.07 µM (inactive),4.63 µM (inactive),,5.75 µM (inactive),14.8 µM (inactive),3.61 µM (inactive),0.053 µM (active),< 0.01 µM (active),4.29 µM (inactive),10.9 µM (inactive),11.1 µM (inactive),2.32 µM (inactive),14.4 µM (inactive),2.29 µM (inactive),3.51 µM (inactive)
CC(=O)C(=[N+]=[N-])C(=O)N(C)CCC#N,> 10 µM (inactive),> 10 µM (inactive),> 10 µM (inactive),,> 10 µM (inactive),> 10 µM (inactive),,> 10 µM (inactive),> 10 µM (inactive),> 10 µM (inactive),> 10 µM (inactive),> 10 µM (inactive),> 10 µM (inactive),> 10 µM (inactive),> 10 µM (inactive),> 10 µM (inactive),> 10 µM (inactive),> 10 µM (inactive),> 10 µM (inactive),> 10 µM (inactive)
CCN1CSC(=S)N(CC)C1,> 100 µM (inactive),27.7 µM (inactive),,22.6 µM (inactive),> 100 µM (inactive),41.1 µM (inactive),> 100 µM (inactive),> 100 µM (inactive),98.4 µM (inactive),> 100 µM (inactive),> 100 µM (inactive),,34.4 µM (inactive),> 100 µM (inactive),37.8 µM (inactive),98.2 µM (inactive),28.6 µM (inactive),24 µM (inactive),19.5 µM (inactive),79.8 µM (inactive)
C1CC2CN(CCCN3CCOCC3)C(C1)O2 (centres undefined),> 100 µM (inactive),> 100 µM (inactive),> 100 µM (inactive),> 100 µM (inactive),> 100 µM (inactive),> 100 µM (inactive),> 100 µM (inactive),> 100 µM (inactive),> 100 µM (inactive),> 100 µM (inactive),> 100 µM (inactive),,> 100 µM (inactive),> 100 µM (inactive),> 100 µM (inactive),> 100 µM (inactive),> 100 µM (inactive),> 100 µM (inactive),> 100 µM (inactive),> 100 µM (inactive)
N=c1c2c(-c3ccccc3)c[nH]c2ncn1N,> 100 µM (inactive),> 100 µM (inactive),> 100 µM (inactive),> 100 µM (inactive),> 100 µM (inactive),> 100 µM (inactive),> 100 µM (inactive),> 100 µM (inactive),> 100 µM (inactive),> 100 µM (inactive),> 100 µM (inactive),,> 100 µM (inactive),> 100 µM (inactive),> 100 µM (inactive),> 100 µM (inactive),> 100 µM (inactive),> 100 µM (inactive),> 100 µM (inactive),> 100 µM (inactive)
O=C1CCCC(=O)N1n1c(Cc2ccc(Cl)cc2)n[nH]c1=O,> 100 µM (inactive),> 100 µM (inactive),> 100 µM (inactive),> 100 µM (inactive),> 100 µM (inactive),> 100 µM (inactive),> 100 µM (inactive),> 100 µM (inactive),> 100 µM (inactive),> 100 µM (inactive),> 100 µM (inactive),,> 100 µM (inactive),> 100 µM (inactive),> 100 µM (inactive),> 100 µM (inactive),> 100 µM (inactive),> 100 µM (inactive),> 100 µM (inactive),> 100 µM (inactive)
